The target of assay [1] is T1, Short transient receptor potential channel 4 (Mus musculus, UniProt Q9QUQ5).
T1 sequence (Q9QUQ5 whole entry): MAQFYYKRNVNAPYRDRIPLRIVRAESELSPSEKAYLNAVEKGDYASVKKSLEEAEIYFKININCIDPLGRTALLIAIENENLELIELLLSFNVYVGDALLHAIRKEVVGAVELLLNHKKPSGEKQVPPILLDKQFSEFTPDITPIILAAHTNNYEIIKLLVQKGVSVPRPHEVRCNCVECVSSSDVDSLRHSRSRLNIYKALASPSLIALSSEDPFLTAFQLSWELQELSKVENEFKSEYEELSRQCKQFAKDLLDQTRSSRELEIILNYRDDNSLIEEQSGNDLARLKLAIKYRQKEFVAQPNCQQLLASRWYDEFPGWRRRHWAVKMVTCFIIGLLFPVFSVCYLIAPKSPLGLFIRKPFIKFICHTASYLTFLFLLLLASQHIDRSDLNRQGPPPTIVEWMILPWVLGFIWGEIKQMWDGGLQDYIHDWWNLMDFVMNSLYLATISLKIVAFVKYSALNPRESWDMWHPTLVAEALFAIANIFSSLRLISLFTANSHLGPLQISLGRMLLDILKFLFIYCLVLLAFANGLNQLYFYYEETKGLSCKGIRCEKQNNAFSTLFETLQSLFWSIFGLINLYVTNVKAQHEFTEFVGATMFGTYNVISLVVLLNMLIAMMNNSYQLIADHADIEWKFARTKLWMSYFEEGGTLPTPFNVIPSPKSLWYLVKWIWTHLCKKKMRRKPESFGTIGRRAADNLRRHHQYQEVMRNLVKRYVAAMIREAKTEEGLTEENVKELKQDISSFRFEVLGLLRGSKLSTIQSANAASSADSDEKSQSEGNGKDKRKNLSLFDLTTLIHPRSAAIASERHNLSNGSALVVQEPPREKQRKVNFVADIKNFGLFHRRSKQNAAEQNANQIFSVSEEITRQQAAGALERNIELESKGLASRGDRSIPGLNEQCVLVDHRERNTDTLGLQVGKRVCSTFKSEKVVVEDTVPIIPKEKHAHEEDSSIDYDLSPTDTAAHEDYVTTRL
Nature of the assay: calcium entry via TRPC4 opening agents – cell-based, HEK293 TRPC4/mu-opioid, Fluo-4 calcium, dose response (AID 434937). It counts as functional.

Assay [2] in a line: luciferase reporter signal suppression in cells – H4 neuroglioma cells, luminescence, dose response (AID 1990). Format: functional, cell-based.
Assay [3] is described as follows: Luminescence Cell-Based Dose Response HTS to Identify Inhibitors of 5'UTR Stem-Loop Driven Prion Protein mRNA Translation in H4 Neuroglioblastoma Cells. [Related pubchem assays: 1827 (Project Summary), 1813 (Primary HTS)]. Format: functional.
Assay [4] addresses T2, Heat shock factor protein 1 (Mus musculus, UniProt P38532).
T2 sequence (P38532 whole entry): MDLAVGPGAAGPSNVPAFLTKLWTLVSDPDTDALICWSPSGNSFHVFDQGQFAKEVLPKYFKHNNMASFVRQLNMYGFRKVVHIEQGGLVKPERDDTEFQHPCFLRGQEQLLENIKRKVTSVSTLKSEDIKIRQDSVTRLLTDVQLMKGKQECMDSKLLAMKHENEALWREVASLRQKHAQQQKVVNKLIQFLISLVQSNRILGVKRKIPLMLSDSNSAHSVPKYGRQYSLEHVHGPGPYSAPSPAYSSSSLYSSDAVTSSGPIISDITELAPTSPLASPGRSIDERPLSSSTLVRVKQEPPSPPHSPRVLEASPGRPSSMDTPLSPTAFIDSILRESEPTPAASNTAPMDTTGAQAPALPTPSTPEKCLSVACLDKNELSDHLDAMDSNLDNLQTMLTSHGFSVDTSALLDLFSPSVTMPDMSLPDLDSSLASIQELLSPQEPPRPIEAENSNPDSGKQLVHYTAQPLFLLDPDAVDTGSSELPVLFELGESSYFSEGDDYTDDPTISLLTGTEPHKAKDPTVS
Nature of the assay: decrease of HSF1-responsive luciferase luminescence – cell-based, NIH3T3, dose retest, confirmation (AID 2382).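 Note: NIH3T3 fibroblasts with HSF1-driven luciferase reporter stressed by proteasome inhibitor MG132; luminescence from HSF1-driven luciferase expression after 8 hours of MG132 stress.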 It counts as functional.

A short description of assay [5]: alpha-synuclein stem-loop luciferase translation blockers – H4 neuroglioma cells, luminescence, confirmation (AID 1988). It counts as functional, cell-based.
Assay [6] is described as follows: Trypanosoma cruzi growth suppression in host cells – NIH3T3 host cells, beta-gal luminescence, confirmation (AID 2044).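 Note: intracellular parasites grown in NIH/3T3 mouse fibroblasts as host cells; luminescent beta-galactosidase reporter signal from transgenic T. cruzi replicating inside host cells; inhibitors lower the luminescence signal.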 Format: functional, cell-based.
Assay [7] in a line: viability of PTEN-deleted HCT116 cells – cell-based, HCT116 PTEN knockout, dose response (AID 1047).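 Note: HCT116 colon tumor cells with PTEN knocked out; cells exposed to compound for 60 hours before readout; potency for loss of cell viability measured by luminescence.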 It counts as functional.
A short description of assay [8]: NIH3T3 cell viability loss – ATP luminescence, mouse fibroblasts, counter-screen, dose response (AID 2010).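 Note: cells exposed to compound for about 90 hours before reading.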 It counts as functional, cell-based. A general note: The purpose of a counterscreen is to sort out artefacts and off-target activity.
The nature of assay [9]: viability of HCT116 lacking mutant beta-catenin – cell-based, human colon tumor, dose response (AID 1045).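 Note: HCT116 colon tumor cells with beta catenin knocked out; cells exposed to compound for 60 hours.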 Format: functional.
Assay [10] in a line: HEK-293T viability loss after treatment – luminescence, T-cell screen hits, cytotoxicity control for TCR NF-kB inhibitor project, dose response (AID 489026).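 Note: cells exposed to compound about 14 hours before the viability readout.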 Format: functional, cell-based.
A further assay concerns the target Genome polyprotein (dengue virus type 2, UniProt P29990). Kind of assay: flavivirus cap methylation enzyme inhibition – biochemical, confirmation dose response, primary screen (AID 588689). Format: functional.
The target in assay [11] is T3, Corticotropin-releasing factor receptor 2/Corticotropin-releasing factor-binding protein (Homo sapiens, UniProt P24387+Q13324).
T3 sequence (Q13324 whole entry): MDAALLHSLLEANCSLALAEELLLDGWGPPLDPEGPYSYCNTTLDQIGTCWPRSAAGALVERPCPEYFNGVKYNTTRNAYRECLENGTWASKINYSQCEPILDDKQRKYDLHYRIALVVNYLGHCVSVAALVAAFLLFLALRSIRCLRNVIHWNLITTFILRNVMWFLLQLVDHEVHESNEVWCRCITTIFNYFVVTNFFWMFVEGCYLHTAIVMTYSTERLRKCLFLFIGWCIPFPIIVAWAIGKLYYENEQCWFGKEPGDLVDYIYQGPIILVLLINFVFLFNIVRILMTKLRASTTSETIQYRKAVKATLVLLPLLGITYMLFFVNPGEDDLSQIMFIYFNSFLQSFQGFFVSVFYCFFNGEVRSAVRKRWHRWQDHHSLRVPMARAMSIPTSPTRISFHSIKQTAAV
T3 sequence (P24387 whole entry): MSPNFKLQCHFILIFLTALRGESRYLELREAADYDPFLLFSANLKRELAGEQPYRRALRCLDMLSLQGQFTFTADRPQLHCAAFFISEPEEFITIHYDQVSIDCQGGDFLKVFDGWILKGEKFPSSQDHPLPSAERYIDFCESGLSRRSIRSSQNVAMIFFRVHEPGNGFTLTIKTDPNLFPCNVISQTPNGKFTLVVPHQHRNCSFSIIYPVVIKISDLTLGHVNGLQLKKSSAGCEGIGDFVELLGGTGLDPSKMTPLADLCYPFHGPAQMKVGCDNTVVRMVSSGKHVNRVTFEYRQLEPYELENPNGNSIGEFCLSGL
Nature of the assay: Dose Response confirmation of uHTS hits for small molecule antagonists of the CRF-binding protein and CRF-R2 receptor complex. It counts as functional. The conditions noted are these: read-out: IC50_Mean.

Assay [12] concerns the target T3, Corticotropin-releasing factor receptor 2/Corticotropin-releasing factor-binding protein. Kind of assay: activators of CRF receptor 2 with binding protein – uHTS hits, confirmation (AID 602473). Format: functional. Conditions: read-out: EC50_Mean.
For another assay, the system named is HEK293. Nature of the assay: EBV LMP1 TES2 canonical NF-kB signalling blockers – cell-based, HEK293, luciferase, cherry-pick, dose response (AID 588343). The conditions noted are these: Homo sapiens. It counts as functional.
In assay [13] the target is Glyceraldehyde-3-phosphate dehydrogenase (Homo sapiens, UniProt P04406).
Sequence of Glyceraldehyde-3-phosphate dehydrogenase (P04406 whole entry, the tested form may be a part): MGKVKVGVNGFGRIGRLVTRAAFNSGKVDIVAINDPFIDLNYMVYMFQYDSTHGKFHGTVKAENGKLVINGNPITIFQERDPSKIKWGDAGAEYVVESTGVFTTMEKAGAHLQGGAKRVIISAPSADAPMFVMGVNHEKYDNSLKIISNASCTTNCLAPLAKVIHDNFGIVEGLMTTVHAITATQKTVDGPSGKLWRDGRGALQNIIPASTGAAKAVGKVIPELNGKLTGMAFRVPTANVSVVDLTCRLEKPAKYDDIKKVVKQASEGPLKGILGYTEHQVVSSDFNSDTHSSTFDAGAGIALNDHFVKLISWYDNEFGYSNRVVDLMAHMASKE
A short description of assay [14]: blockers of HIV-1 envelope-mediated cell-cell fusion – cherry-pick, dose response (AID 652057). Format: functional, cell-based.
A short description of assay [15]: blockers of HIV-1 ZM109 envelope-driven cell-cell fusion – HeLa effector, CEM target cells, luciferase, cherry-pick, dose response (AID 652058).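 Note: luciferase signal from HIV-1 Env mediated cell-cell fusion of effector and target cells.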 Format: functional, cell-based.
The nature of assay [16]: off-target signal loss in HeLa-CEM21 co-culture – HeLa F-luc CTL cells, cherry-picked, counter-screen for HIV-1 Env fusion inhibitor project, dose response (AID 652040).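 Note: potency for signal decrease marking cytotoxic or nonspecific inhibition.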 Format: functional, cell-based.
Assay [17] can be described thus: HIV-1 AD8 envelope cell-cell fusion blockers – cherry-pick, dose response (AID 652062).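 Note: luciferase signal from cell-cell fusion driven by HIV-1 clade B AD8 Env; potency is for inhibitors of fusion seen as a drop in luminescence.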 It counts as functional, cell-based.
For assay [18], the target named is T4, RNA-binding protein pos-1 (Caenorhabditis elegans, UniProt G5EF15).
T4 sequence (G5EF15 whole entry): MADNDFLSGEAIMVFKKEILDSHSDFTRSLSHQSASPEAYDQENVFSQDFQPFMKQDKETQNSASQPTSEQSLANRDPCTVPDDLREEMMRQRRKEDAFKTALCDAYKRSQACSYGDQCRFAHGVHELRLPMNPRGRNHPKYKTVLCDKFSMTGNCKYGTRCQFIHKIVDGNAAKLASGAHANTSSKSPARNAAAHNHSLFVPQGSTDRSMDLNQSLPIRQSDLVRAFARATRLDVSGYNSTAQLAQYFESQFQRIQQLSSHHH
Kind of assay: disruptors of C. elegans POS-1 RNA interaction – biochemical, fluorescence polarization, dose response (AID 1964).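 Note: purified POS-1 fused to maltose binding protein made in E. coli; potency of compounds blocking POS-1 binding to fluorescent RNA.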

Assay [19] addresses T5, Zinc finger protein mex-5 (Caenorhabditis elegans, UniProt Q9XUB2).
T5 sequence (Q9XUB2 whole entry): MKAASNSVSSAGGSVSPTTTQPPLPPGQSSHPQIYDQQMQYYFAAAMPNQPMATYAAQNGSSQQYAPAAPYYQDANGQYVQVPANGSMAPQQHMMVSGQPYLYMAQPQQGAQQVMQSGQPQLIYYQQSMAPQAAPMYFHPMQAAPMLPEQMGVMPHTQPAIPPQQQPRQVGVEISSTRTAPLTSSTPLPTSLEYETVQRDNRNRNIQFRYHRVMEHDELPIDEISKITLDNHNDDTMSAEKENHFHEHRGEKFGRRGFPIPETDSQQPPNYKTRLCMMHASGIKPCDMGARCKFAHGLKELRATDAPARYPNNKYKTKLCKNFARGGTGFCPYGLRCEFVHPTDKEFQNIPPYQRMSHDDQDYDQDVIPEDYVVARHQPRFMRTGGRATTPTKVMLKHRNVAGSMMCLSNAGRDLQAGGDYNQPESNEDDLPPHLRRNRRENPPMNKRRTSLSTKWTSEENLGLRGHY
Kind of assay: potency of MEX-5 RNA-binding blockers – biochemical, C. elegans, fluorescence polarization, dose response (AID 1960). For orientation: Polarisation of emitted light reports the rotation of a fluorescent probe.

Active and inactive are the calls of the source.

Our source for the EC50, IC50 and AC50 values is ChEMBL document CHEMBL1201862, “PubChem BioAssay data set” (2004).

Sequence of Genome polyprotein (P29990 2492-3391 limits assumed): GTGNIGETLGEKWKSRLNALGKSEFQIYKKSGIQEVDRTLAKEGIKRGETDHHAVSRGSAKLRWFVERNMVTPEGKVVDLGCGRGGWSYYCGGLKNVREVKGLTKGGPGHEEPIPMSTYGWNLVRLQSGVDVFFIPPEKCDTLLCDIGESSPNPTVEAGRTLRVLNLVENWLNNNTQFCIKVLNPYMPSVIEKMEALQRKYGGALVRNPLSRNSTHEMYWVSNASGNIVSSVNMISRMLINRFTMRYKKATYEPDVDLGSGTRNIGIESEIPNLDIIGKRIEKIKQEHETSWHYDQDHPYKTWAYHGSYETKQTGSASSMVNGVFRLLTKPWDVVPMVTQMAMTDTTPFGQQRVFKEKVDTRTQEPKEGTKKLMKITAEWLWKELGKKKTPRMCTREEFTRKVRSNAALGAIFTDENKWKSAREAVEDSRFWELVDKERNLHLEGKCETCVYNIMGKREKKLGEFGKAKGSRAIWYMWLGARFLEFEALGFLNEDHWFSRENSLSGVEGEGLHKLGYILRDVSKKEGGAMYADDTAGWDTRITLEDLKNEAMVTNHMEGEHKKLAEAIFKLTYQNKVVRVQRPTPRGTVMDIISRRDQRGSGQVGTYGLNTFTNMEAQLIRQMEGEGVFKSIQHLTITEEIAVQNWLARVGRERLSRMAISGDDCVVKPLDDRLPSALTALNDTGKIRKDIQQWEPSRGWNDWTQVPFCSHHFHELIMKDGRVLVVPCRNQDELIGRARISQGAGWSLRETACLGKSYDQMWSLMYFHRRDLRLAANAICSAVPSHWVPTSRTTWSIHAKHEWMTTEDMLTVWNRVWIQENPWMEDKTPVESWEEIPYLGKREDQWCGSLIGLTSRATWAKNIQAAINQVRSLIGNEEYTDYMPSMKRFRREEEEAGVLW

As for `Cc1ccn2cc(CCNC(=O)C3CC=CCC3C(=O)O)nc2c1` (stereo not drawn), the EC50 in assay [1] was 3.76 µM (active).
For `Oc1ccc(Nc2nc3ccccc3nc2Nc2ccc(O)cc2)cc1`, the EC50 in assay [2] is 21.4 µM (active); in assay [3], 117 µM (active); in assay [4] it was > 195 µM (not active); in assay [5] it was > 120 µM (not active); in assay [6], 4.43 µM (active); in [7], 1.25 µM (active). Besides, the EC50 is > 30 µM (not active) in assay [8] and 1.19 µM (active) in assay [9]. Besides, the IC50 in assay [10] was 67.3 µM (inactive).
As to `O=C(O)c1cc([N+](=O)[O-])c(Sc2nc3ccccc3[nH]2)c([N+](=O)[O-])c1`, the IC50 on Genome polyprotein is > 100 µM (active).
Consider `COC(=O)CSC1=NS(=O)(=O)c2ccccc21`, for which the IC50 at Genome polyprotein is 23.2 µM (active); in assay [11], > 47.1 µM (inactive). Further, in assay [12], the EC50 was > 53 µM (inactive).
For the compound `COc1cccc(C(=O)NC2CCCN(C3Cc4ccccc4C3)C2)c1OC` (stereo not drawn), the EC50 in assay [1] is 5.31 µM (active).
For the compound `Cc1sc2ncnc(N3CCC(C(=O)Nc4ccccc4C(C)(C)C)CC3)c2c1C`, the AC50 (as a rule, the midpoint of the concentration-response curve, whichever way the signal moves) in the assay on HEK293 is 16.8 µM (active).
For `COc1ccccc1N1C(=O)NC(=O)/C(=C\c2cnn(-c3ccccc3)c2)C1=O`, the IC50 at Genome polyprotein is > 100 µM (active).
Consider `COc1cccc(N2CCN(C3=C(Cl)C(=O)N(c4ccc(C)cc4)C3=O)CC2)c1`, for which the IC50 in [13] is > 50 µM (inconclusive).
Take `Cc1ccc2cc(C#N)c(NCCNC(=O)C3CCC3)nc2c1C`: the AC50 in assay [14] is 9.91 µM (active); in assay [15] it was 9.78 µM (active); in [16], 11 µM (active); in assay [17], 8.62 µM (active).
Turning to `COC(=O)C1=NN(C(=O)c2ccc(C)cc2)C(O)(c2ccc(Cl)cc2)C1` (stereo not drawn), the results for the EC50 in assay [18], in assay [19] and in [1] were > 300 µM (not active), 37.7 µM (inconclusive) and 6.68 µM (active), respectively.
For the compound `Cc1cccc(CN2CCN(Cc3ccc(Cl)cc3)CC2)c1`, the AC50 in the assay with HEK293 was 53.2 µM (active).
Regarding `COc1ccc(CCNc2oc(-c3cccc4ccccc34)nc2P(=O)(OC)OC)cc1OC`, the AC50 in assay [14] is 5 µM (active); in assay [15] it was 7.26 µM (active); in assay [16], 10.6 µM (active); in assay [17], 1.1 µM (active).
As for `OCCN1CCN(Cc2cc(Br)cc(Br)c2O)CC1`, in assay [1], the EC50 is 0.0293 µM (active).
As for `CCOC(=O)[C@@H]1[C@H]2COc3ccc(Br)cc3[C@@H]2N2C(=O)N(c3ccc(F)cc3)C(=O)[C@@]12C`, the AC50 is 1.72 µM (active) in assay [14], 5.78 µM (active) in assay [15], 3.77 µM (active) in [16] and 4.5 µM (active) in assay [17].
For `CCN(C[C@H]1N[C@@](CC)(C(=O)OC)[C@H]2C(=O)N(Cc3ccccc3)C(=O)[C@@H]12)C(=O)Nc1ccc(OC)cc1` the same measures were 0.421 µM (active), 0.581 µM (active), 1.23 µM (active) and 0.993 µM (active).
Consider `CC(=O)c1c(O)cc2c3c1OC(C)(C)C1CCC(C)(CC31)O2` (stereo not drawn), for which the AC50 in assay [14] was 5.16 µM (active); in [15], 1.07 µM (active); in [16] it was 13.1 µM (active); in assay [17] it was 9.92 µM (active).
